The record followed here is patent US4666908A, “5-Substituted pyrazolo[4,3-d]pyrimidine-7-ones and methods of use” (Warner-Lambert Company, priority 1985, dated 1987).

Molecules are shown by their SMILES. Like-named read-outs stand apart in the source and are kept apart here.

The test system of experiment [1] is Type 3 Phosphodiesterase. The experiment in a line: Phosphodiesterase (PDE) Inhibition, Type 3 Phosphodiesterase. The following applies: Type 3 PDE, at 10^-5 M, substrate 3H-cAMP 1.0 μM. The class given is biochemical, bovine (coronary arteries). The method in brief:
(§1)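 PDEs isolated from bovine coronary artery by DEAE-cellulose chromatography, fractions typed by cAMP/cGMP hydrolysis ± calmodulin/CaCl2. Assay in 40 mM Tris-HCl (pH 8.0), 5 mM MgCl, 4 mM 2-mercaptoethanol with 1.0 μM ^3H-cyclic AMP or ^3H-cyclic GMP; final DMSO 1.25% (smooth muscle) or 2.5% (cardiac, platelet).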

Experiment [2] deals with Type 1 Phosphodiesterase. Kind of experiment: Phosphodiesterase (PDE) Inhibition, Type 1 Phosphodiesterase. The class given is biochemical, bovine (coronary arteries). The note with it: Type 1 PDE, at 10^-5 M; for % Inhibition of hydrolysis of 3H-cAMP: substrate 3H-cAMP 1.0 μM; for % Inhibition of hydrolysis of 3H-cGMP: substrate 3H-cGMP 1.0 μM. The method in brief: as §1

Experiment [3] concerns the target T1, adenosine A1 receptor (Rattus norvegicus, UniProt P25099).
T1 construct: Whole brain minus cerebellum and brainstem from male Long Evans rats; from tissue; host or cells: whole brain minus cerebellum and brainstem, male Long Evans rats (membranes)
T1 sequence (P25099 1-326): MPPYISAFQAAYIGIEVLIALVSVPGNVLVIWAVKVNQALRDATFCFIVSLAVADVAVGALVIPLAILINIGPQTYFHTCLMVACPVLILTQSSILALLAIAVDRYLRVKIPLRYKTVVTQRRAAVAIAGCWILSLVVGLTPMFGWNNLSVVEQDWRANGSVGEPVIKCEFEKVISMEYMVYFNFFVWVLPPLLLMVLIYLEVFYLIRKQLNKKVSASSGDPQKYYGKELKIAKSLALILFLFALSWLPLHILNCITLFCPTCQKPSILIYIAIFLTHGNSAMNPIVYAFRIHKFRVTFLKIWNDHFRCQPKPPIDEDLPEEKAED
Kind of experiment: Adenosine Receptor Binding - A1 Receptor Affinity (RBA1), [3H]-N6-cyclohexyladenosine displacement. The following applies: [3H]-CHA 1.0 nM, rat brain membranes, 25° C., one hour; read-out: RBA-1, IC50 for adenosine A1 receptor affinity. The essentials: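 Rat forebrain membranes (whole brain minus cerebellum and brainstem, male Long Evans) washed in 0.05 M Tris-HCl pH 7.7, used at 20 mg/ml wet tissue. Bound [3H]-N6-cyclohexyladenosine measured by filtration and scintillation counting; Hill coefficient by log-plot regression, Bmax from Scatchard plot.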

Experiment [4] concerns pentobarbital-anesthetized dog. The experiment in a line: In Vivo Myocardial Inotropic Activity in Anesthetized Dog (CVAD). Set-up: species or system dog (adult mongrel). The following applies: for change in vivo at 0.3 mg/kg: 0.30 mg/kg IV. The essentials:
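Adult mongrel dogs under pentobarbital anaesthesia (35 mg/kg IV, then 3.5 mg/kg/hour infusion), breathing spontaneously; increasing compound doses given IV via femoral vein, each over one minute. LV dP/dt max, heart rate (lead II ECG) and aortic pressure recorded by catheter transducers against ≥30 min control baseline; vehicle controls as needed.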

[5] abbreviates: Canis lupus familiaris, iv, 0.10 mg/kg IV, read-out: Percent Change Heart Rate.
The mark [6] stands for this setting: Canis lupus familiaris, iv, 0.10 mg/kg IV, read-out: Percent Change Myocardial Contractility.
Where [7] appears, read: Canis lupus familiaris, iv, 0.31 mg/kg IV, read-out: Percent Change Heart Rate.
Where [8] appears, read: Canis lupus familiaris, iv, 0.31 mg/kg IV, read-out: Percent Change Myocardial Contractility.
Setting [9] is: Canis lupus familiaris, iv, 1.00 mg/kg IV, read-out: Percent Change Heart Rate.
Setting [10] is: Canis lupus familiaris, iv, 1.00 mg/kg IV, read-out: Percent Change Myocardial Contractility.
Where [11] appears, read: Canis lupus familiaris, iv, 3.10 mg/kg IV, read-out: Percent Change Heart Rate.
[12] abbreviates: Canis lupus familiaris, iv, 3.10 mg/kg IV, read-out: Percent Change Myocardial Contractility.

For the molecule `Cc1nn(C)c2c(=O)[nH]c(-c3ccc(N)cc3)nc12` [Example 11, 1,3-Dimethyl-5-(4-aminophenyl)pyrazolo[4,3-d]pyrimidine-7-one], the “% Inhibition of hydrolysis of 3H-cAMP” value in experiment [1] is 32%; in experiment [2], 19%. For the same molecule, the “% Inhibition of hydrolysis of 3H-cGMP” value in experiment [2] was 15%. For the same molecule, in experiment [3], the IC50 was found to be 385 nM. The “Percent Change Blood Pressure” value in experiment [4] (0.10 mg/kg IV) is 1/1; in experiment [4] (0.31 mg/kg IV), 5/3; in experiment [4] (1.00 mg/kg IV), 1/0. The change in vivo at 0.1 mg/kg in experiment [4] (setting [5]) was 1%; in experiment [4] (setting [6]), 9%. Besides, the change in vivo at 0.31 mg/kg in experiment [4] (setting [7]) turned out to be 3%; in experiment [4] (setting [8]), 17%. In addition, the change in vivo at 1 mg/kg in experiment [4] (setting [9]) amounted to 5%; in experiment [4] (setting [10]) it was 25%. For the same molecule, the change in vivo at 3.1 mg/kg in experiment [4] (setting [11]) was determined as 15%; in experiment [4] (setting [12]), 66%.

On to `Cc1nn(C)c2c(=O)[nH]c(-c3cccc(N)c3)nc12` [Example 12, 1,3-Dimethyl-5-(3-aminophenyl)pyrazolo[4,3-d]pyrimidine-7-one], for which the entries for the “% Inhibition of hydrolysis of 3H-cAMP” value in experiment [1] and in experiment [2] were 33% and 6%, respectively. Besides, in experiment [2], the “% Inhibition of hydrolysis of 3H-cGMP” value is 9%. Further, the IC50 in experiment [3] worked out at 1540 nM. In addition, the change in vivo at 0.1 mg/kg in experiment [4] (setting [5]) was -8%; in experiment [4] (setting [6]), -1%. Besides, the change in vivo at 0.31 mg/kg in experiment [4] (setting [7]) was -10%; in experiment [4] (setting [8]), -19%. For the same molecule, the change in vivo at 1 mg/kg in experiment [4] (setting [9]) is -8%; in experiment [4] (setting [10]), -12%.

For the molecule `Cc1nn(C)c2c(=O)[nH]c(-c3cccc([N+](=O)[O-])c3)nc12` [Example 13, 1,3-Dimethyl-5-(3-nitrophenyl)pyrazolo[4,3-d]pyrimidine-7-one], the “% Inhibition of hydrolysis of 3H-cAMP” value in experiment [1] was 50%; in experiment [2], 30%. Besides, in experiment [2], the “% Inhibition of hydrolysis of 3H-cGMP” value is recorded as 18%. For the same molecule, the IC50 in experiment [3] came to 1200 nM. Moreover, the change in vivo at 0.1 mg/kg in experiment [4] (Canis lupus familiaris, iv, 0.10 mg/kg IV, read-out: Percent Change Blood Pressure) was -2%; in experiment [4] (setting [5]) it was 2%; in experiment [4] (setting [6]), 6%. The change in vivo at 0.3 mg/kg in experiment [4] (Canis lupus familiaris, iv, read-out: Percent Change Blood Pressure) is -4%; in experiment [4] (Canis lupus familiaris, iv, read-out: Percent Change Heart Rate), 4%; in experiment [4] (Canis lupus familiaris, iv, read-out: Percent Change Myocardial Contractility) it was 5%. The change in vivo at 1 mg/kg in experiment [4] (Canis lupus familiaris, iv, 1.00 mg/kg IV, read-out: Percent Change Blood Pressure) was -7%; in experiment [4] (setting [9]), -3%; in experiment [4] (setting [10]) it was -7%. Moreover, the change in vivo at 3.1 mg/kg in experiment [4] (Canis lupus familiaris, iv, 3.10 mg/kg IV, read-out: Percent Change Blood Pressure) was -12%; in experiment [4] (setting [11]) it was -3%; in experiment [4] (setting [12]) it was 6%. In experiment [4] (Canis lupus familiaris, iv, 10.00 mg/kg IV, read-out: Percent Change Myocardial Contractility), the change in vivo at 10 mg/kg worked out at 101%.

Regarding `Cc1nn(C)c2c(=O)[nH]c(-c3ccc(Cl)c(Cl)c3)nc12` [Example 15, 1,3-Dimethyl-5-(3,4-dichlorophenyl)pyrazolol[4,3-d]-pyrimidine-7one], the “% Inhibition of hydrolysis of 3H-cAMP” value worked out at 0% in experiment [1] and 5% in experiment [2]. Also, the “% Inhibition of hydrolysis of 3H-cGMP” value in experiment [2] was 3%. The IC50 in experiment [3] amounted to 887 nM. In addition, the “Percent Change Blood Pressure” value in experiment [4] (0.10 mg/kg IV) and in experiment [4] (3.10 mg/kg IV) was 1/2 in each case. The change in vivo at 0.1 mg/kg is 7% in experiment [4] (setting [5]) and 8% in experiment [4] (setting [6]). Moreover, the change in vivo at 0.31 mg/kg in experiment [4] (setting [7]) is 7%; in experiment [4] (setting [8]), 10%. The change in vivo at 1 mg/kg was 9% in experiment [4] (setting [9]) and 13% in experiment [4] (setting [10]). In addition, the change in vivo at 3.1 mg/kg in experiment [4] (setting [11]) was 12%; in experiment [4] (setting [12]), 13%.

Regarding `COc1ccc(-c2nc3c(C)nn(C)c3c(=O)[nH]2)cc1OC` [Example 16, 1,3-Dimethyl-5-(3,4-dimethoxyphenyl)pyrazolo[4,3-d]pyrimidine-7-one], the “% Inhibition of hydrolysis of 3H-cAMP” value in experiment [1] worked out at 17%; in experiment [2] it was 10%. Further, the “% Inhibition of hydrolysis of 3H-cGMP” value in experiment [2] is 17%. The IC50 in experiment [3] is 1920 nM. Besides, the “Percent Change Blood Pressure” value is given as 1/3 in experiment [4] (0.31 mg/kg IV) and 1/2 in experiment [4] (1.00 mg/kg IV). Also, the change in vivo at 0.1 mg/kg in experiment [4] (setting [5]) came to 1%; in experiment [4] (setting [6]) it was 2%. Further, the change in vivo at 0.31 mg/kg in experiment [4] (setting [7]) and in experiment [4] (setting [8]) was -1% in each case. In addition, the change in vivo at 1 mg/kg in experiment [4] (setting [9]) is -2%; in experiment [4] (setting [10]), -1%.

What is called IC50 is the concentration needed to halve the response being measured.
